Experimental findings from US10912819B2, “Neuroprotective peptides derived from activity-dependent neuroprotective protein for treatment of neurological diseases” (priority 2016, dated 2021) are described below.

The experiment deals with microtubule end binding protein 1 and 3 (EB1 and EB3) comets in living N1E-115. Description: Live imaging of EB1/EB3 comets in N1E-115 cells carrying ADNP mutations. It counts as cell-based. Conditions: p.Tyr719*/p.Lys404Valfs*31 ADNP, 4 hours NAP treatment (10^−12M). The text has this: FIG. 10: NAP ameliorates cytoskeletal deficiencies associated with ADNP mutations. Human ADNP mutated cDNA was cloned into plasmids as described (Ivashko-Pachima et al., Molecular Psychiatry 2017, in press). The mutations cloned included the p.Tyr719* ADNP, the most common ADNP mutation (Gozes et al., Frontiers in Endocrinology, under revisions) and the p.Lys408Valfs31*, the first de novo ADNP mutation identified (reviewed in Gozes et al., J Mol Neurosci (2015) 56:751-757.
The effects of ADNP carried p.Tyr719*/p.Lys404Valfs*31 mutation on microtubule end binding protein 1 and 3 (EB1 and EB3) comets in living N1E-115 is shown. For experimental details see, Ivashko-Pachima et al., Molecular Psychiatry 2017, in press. (A) Live imaging of N1E-115 cells. EB1-RFP (red) co-transfected with full ADNP/p.Tyr719*/p.Lys404Valfs*31 carrying plasmids before and after 4 hours NAP treatment (10^−12M) (panel A1). […] (B-C) EB1 Quantification of average track length, comet speed, comet length and number of comets/100 μm^2 (total number of comets: ADNP (full) before treatment n=2639/1 I cells, ADNP (full) after NAP treatment n=3107/15cells, ADNP p.Tyr719* before treatment n=1910/14cells, ADNP p.Tyr719* after NAP treatment n=3990/16cells, ADNP p.Lys404Valfs*31 before treatment n=1082/6cells, ADNP p.Lys404Valfs*31 after NAP treatment n=694/5cells). […]

As for `CC[C@H](C)[C@H](NC(=O)[C@H](CO)NC(=O)[C@@H](NC(=O)[C@@H]1CCCN1C(=O)[C@H](C)NC(=O)[C@@H](N)CC(N)=O)C(C)C)C(=O)N1CCC[C@H]1C(=O)N[C@@H](CCC(N)=O)C(=O)O` [NAP], the “changes in microtubule dynamics (EB1/EB3 comets) caused by ADNP mutations” value is on record as “ameliorated, in part”.
